In ChEMBL document CHEMBL4257082, “Nhe3-binding compounds and methods for inhibiting phosphate transport” (2016):
Calls of active or inactive are those of the source. The rule behind the calls is not given here.

Columns and labels:
Homo sapiens = organism: Homo sapiens; assay: Selectivity ratio of IC50 for NHE3 (unknown origin) to IC50 for NHE1 (unknown origin)
[1] = molecular target: Sodium/hydrogen exchanger 1 (Rattus norvegicus, UniProt P26431); assay: Inhibition of rat NHE1
[2] = molecular target: Sodium/hydrogen exchanger 1 (Oryctolagus cuniculus, UniProt P23791); assay: Inhibition of rabbit NHE1
[3] = molecular target: T1, Sodium/hydrogen exchanger 2 (Oryctolagus cuniculus, UniProt P50482); assay: Inhibition of rabbit NHE2
T1 sequence (P50482 whole entry): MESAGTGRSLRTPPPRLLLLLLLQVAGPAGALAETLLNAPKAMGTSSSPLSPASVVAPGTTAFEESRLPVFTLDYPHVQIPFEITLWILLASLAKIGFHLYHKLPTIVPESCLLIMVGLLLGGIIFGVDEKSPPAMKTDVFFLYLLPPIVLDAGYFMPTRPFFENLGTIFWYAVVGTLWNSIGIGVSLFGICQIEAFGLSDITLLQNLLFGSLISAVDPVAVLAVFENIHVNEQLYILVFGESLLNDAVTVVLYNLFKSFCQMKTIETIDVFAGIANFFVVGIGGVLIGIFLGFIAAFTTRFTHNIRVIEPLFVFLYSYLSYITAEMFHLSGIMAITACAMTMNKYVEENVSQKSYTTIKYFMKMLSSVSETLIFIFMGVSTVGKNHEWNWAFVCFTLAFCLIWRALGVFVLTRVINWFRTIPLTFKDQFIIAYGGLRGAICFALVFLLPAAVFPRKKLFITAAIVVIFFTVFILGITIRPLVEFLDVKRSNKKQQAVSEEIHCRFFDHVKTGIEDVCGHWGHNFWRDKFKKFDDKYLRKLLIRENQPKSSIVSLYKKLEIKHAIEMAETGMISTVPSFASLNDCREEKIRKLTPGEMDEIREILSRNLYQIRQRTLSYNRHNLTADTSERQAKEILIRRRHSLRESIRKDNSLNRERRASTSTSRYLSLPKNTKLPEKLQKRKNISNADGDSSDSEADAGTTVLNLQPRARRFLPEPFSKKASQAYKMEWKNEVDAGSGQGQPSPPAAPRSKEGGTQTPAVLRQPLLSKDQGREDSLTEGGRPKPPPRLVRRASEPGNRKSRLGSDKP

[4] = molecular target: Sodium/hydrogen exchanger 3 (Rattus norvegicus, UniProt P26433); assay: Inhibition of rat NHE3
[5] = molecular target: T2, Sodium/hydrogen exchanger 5 (Homo sapiens, UniProt Q14940); assay: Inhibition of NHE5 (unknown origin)
T2 sequence (Q14940 whole entry): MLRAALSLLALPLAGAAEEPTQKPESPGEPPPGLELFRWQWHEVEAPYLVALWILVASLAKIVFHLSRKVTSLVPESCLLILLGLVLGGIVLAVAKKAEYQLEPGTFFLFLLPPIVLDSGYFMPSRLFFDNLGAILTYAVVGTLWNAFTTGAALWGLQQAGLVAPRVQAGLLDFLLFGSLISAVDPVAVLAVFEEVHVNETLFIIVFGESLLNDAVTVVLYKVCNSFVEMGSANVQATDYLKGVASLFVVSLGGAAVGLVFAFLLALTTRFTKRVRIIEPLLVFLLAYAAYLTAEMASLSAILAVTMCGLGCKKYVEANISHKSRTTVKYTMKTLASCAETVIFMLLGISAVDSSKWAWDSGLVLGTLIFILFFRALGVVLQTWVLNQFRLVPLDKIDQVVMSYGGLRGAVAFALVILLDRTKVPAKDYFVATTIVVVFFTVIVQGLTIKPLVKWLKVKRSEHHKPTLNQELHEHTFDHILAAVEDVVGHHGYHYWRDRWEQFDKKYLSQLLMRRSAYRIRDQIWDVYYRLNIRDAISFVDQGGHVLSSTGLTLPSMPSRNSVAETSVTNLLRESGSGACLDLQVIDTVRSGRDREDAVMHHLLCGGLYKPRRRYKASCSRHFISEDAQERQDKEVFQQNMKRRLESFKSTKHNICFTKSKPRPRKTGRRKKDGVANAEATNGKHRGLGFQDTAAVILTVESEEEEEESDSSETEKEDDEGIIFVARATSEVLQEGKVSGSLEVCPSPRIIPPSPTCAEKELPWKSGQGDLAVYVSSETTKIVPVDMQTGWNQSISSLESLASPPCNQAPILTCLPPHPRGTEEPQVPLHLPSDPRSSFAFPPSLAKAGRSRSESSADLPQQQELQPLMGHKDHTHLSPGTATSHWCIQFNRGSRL

Rattus norvegicus [6] = assay: In vivo inhibition of NHE3 in Sprague-Dawley rat assessed as inhibition of sodium absorption from intestinal lumen by measuring urinary sodium concentration at 10 mg/kg, po via gavage measured after 16 hrs relative to control; assay type: functional; design: scale not given: the % may be the effect or the level left
Rattus norvegicus [7] = assay: In vivo inhibition of NHE3 in rat assessed as inhibition of 33Pi uptake at 10 mg/kg, po measured up to 120 mins; assay type: functional, organism-based
[8] = Oral bioavailability in human; assay type: ADME, organism-based; conditions: in vivo
Rattus norvegicus [9] = assay: In vivo inhibition of NHE3 in Sprague-Dawley rat assessed as inhibition of sodium absorption from intestinal lumen by measuring urinary sodium concentration at 1 mg/kg, po via gavage measured after 16 hrs relative to control; assay type: functional; design: scale not given: the % may be the effect or the level left
Rattus norvegicus [10] = assay: In vivo inhibition of NHE3 in Sprague-Dawley rat assessed as inhibition of sodium absorption from intestinal lumen by measuring urinary sodium concentration at 3 mg/kg, po via gavage measured after 16 hrs relative to control; assay type: functional; design: scale not given: the % may be the effect or the level left

Chain of Sodium/hydrogen exchanger 1 (Oryctolagus cuniculus, UniProt P23791) (P23791 whole entry): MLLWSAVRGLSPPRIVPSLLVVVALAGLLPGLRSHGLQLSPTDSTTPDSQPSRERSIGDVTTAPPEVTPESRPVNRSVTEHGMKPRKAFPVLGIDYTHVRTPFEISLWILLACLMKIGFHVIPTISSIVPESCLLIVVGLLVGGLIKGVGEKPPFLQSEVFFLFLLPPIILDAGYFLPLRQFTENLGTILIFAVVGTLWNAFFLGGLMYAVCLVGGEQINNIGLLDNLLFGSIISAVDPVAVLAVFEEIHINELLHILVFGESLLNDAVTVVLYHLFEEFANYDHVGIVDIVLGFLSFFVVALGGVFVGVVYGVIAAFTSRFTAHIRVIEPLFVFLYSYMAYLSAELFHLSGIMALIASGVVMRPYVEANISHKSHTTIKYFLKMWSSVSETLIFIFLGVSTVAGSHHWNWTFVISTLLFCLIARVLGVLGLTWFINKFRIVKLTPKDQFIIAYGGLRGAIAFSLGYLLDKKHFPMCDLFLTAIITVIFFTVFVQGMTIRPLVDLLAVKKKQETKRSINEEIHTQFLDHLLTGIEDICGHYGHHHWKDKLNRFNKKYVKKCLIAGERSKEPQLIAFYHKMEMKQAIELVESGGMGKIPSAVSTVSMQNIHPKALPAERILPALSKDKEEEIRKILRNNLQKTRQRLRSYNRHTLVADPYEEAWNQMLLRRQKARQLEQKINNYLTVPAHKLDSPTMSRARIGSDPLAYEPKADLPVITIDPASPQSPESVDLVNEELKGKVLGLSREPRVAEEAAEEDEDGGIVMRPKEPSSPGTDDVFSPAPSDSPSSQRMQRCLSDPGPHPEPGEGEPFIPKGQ
Chain of Sodium/hydrogen exchanger 3 (P26433 whole entry): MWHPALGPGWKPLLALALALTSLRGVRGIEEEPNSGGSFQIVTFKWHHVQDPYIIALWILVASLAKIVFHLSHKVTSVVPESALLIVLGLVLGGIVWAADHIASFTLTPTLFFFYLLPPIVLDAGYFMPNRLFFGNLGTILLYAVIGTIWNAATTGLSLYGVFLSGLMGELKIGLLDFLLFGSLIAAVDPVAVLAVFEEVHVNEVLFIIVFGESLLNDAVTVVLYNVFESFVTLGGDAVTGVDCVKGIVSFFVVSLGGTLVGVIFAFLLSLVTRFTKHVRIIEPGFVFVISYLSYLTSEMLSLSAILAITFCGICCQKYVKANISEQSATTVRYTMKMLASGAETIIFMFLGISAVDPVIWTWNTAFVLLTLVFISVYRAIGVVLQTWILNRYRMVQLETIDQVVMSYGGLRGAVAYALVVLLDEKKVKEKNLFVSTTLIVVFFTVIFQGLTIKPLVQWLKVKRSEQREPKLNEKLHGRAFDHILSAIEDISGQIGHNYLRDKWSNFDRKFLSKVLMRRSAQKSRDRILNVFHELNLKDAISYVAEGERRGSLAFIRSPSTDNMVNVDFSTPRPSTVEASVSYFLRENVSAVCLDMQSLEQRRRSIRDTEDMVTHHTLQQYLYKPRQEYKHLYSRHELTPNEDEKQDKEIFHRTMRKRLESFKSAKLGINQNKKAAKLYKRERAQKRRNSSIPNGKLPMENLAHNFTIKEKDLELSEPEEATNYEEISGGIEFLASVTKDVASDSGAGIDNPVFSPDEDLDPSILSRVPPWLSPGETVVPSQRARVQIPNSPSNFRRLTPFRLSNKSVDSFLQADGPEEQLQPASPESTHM
Chain of Sodium/hydrogen exchanger 1 (Rattus norvegicus, UniProt P26431) (P26431 whole entry): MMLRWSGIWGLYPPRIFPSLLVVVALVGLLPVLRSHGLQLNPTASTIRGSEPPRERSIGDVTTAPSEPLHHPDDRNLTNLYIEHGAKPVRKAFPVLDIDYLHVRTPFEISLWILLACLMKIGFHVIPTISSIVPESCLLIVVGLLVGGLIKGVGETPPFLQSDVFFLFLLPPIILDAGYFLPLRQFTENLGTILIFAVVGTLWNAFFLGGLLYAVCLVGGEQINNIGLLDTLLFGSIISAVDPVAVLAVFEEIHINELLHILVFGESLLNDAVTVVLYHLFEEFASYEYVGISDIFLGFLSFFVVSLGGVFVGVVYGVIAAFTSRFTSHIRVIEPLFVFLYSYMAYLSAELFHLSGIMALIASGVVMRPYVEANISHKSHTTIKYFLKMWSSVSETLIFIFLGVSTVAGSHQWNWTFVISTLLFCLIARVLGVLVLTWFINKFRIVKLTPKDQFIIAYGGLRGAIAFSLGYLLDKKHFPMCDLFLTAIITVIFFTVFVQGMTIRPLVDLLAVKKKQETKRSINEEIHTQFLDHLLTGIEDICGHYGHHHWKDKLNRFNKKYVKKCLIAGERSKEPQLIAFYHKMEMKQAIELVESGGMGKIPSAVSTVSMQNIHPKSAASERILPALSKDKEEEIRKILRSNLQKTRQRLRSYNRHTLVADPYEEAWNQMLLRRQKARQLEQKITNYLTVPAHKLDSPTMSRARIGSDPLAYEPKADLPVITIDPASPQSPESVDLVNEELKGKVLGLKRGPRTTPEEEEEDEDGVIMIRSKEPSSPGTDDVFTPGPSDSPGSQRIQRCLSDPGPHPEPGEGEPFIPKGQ

Row | Structure (SMILES) | Activity (Rattus norvegicus [6]) [%] | bioavailability [8] [%] | other results
1 | C/C(=C\c1cccc(/C=C(\C)C(=O)NC(=N)N)c1)C(=O)N=C(N)N |  |  | Ratio IC50 (Homo sapiens): > 500
2 | CCN(c1nc(N)c(C(=O)NC(=N)N)nc1Cl)C(C)C [5-(N-ETHYL-N-ISOPROPYL)AMILORIDE] |  |  | IC50 [1]: 10 nM; IC50 [2]: 20 nM; IC50 [3]: 500 nM; IC50 [4]: 2400 nM; IC50 [5]: 420 nM
3 | CCCCCCCCOCCOCCOCCOCCCOCCOC(=O)NCCOCCOCCOCCNS(=O)(=O)c1cccc([C@@H]2CN(C)Cc3c(Cl)cc(Cl)cc32)c1 | 86 |  | 
4 | CN1Cc2c(Cl)cc(Cl)cc2[C@@H](c2cccc(S(=O)(=O)NCCOCCOCCNC(=O)NCCCCNC(=O)NCCOCCOCCNS(=O)(=O)c3cccc([C@@H]4CN(C)Cc5c(Cl)cc(Cl)cc54)c3)c2)C1 |  |  | inhibition (Rattus norvegicus [7]): inactive
5 | C=CCOc1ccccc1OCC(O)CNC(C)C (configuration not stated) [OXPRENOLOL] |  | 97 | 
6 | OC[C@H]1O[C@@H](O[C@@H]2[C@@H](CO)O[C@](O)(CO)[C@H]2O)[C@H](O)[C@@H](O)[C@H]1O (mixture of isomers) [LACTULOSE] |  | 0.6 | 
7 | O=C(NCCCCNC(=O)NCCOCCOCCNS(=O)(=O)c1ccc(O[C@H]2c3cc(Cl)cc(Cl)c3C[C@@H]2N2CC[C@@H](O)C2)cc1)NCCOCCOCCNS(=O)(=O)c1ccc(O[C@H]2c3cc(Cl)cc(F)c3C[C@@H]2N2CC[C@@H](O)C2)cc1 | 104 |  | 
8 | CN1Cc2c(Cl)cc(Cl)cc2[C@H](c2cccc(S(=O)(=O)NCCOCCOCCNC(=O)NCCN(CCNC(=O)NCCOCCOCCNS(=O)(=O)c3cccc([C@@H]4CN(C)Cc5c(Cl)cc(Cl)cc54)c3)C(=O)CCCOCCOCCOCCOCCC(=O)N(CCNC(=O)NCCOCCOCCNS(=O)(=O)c3cccc([C@@H]4CN(C)Cc5c(Cl)cc(Cl)cc54)c3)CCNC(=O)NCCOCCOCCNS(=O)(=O)c3cccc([C@@H]4CN(C)Cc5c(Cl)cc(Cl)cc54)c3)c2)C1 | 47 |  | 
9 | O=C(O)c1cc(/N=N/c2ccc(S(=O)(=O)Nc3ccccn3)cc2)ccc1O [SULFASALAZINE] |  | 12 | 
10 | OC[C@H]1O[C@H](OC[C@H]2O[C@H](O[C@]3(CO)O[C@H](CO)[C@@H](O)[C@@H]3O)[C@H](O)[C@@H](O)[C@@H]2O)[C@H](O)[C@@H](O)[C@H]1O [RAFFINOSE] |  | 0.3 | 
11 | CN1Cc2c(Cl)cc(Cl)cc2[C@H](c2cccc(S(=O)(=O)NCCOCCOCCNC(=O)CN3CCN(CC(=O)NCCOCCOCCOCCNS(=O)(=O)c4cccc([C@@H]5CN(C)Cc6c(Cl)cc(Cl)cc65)c4)CCN(CC(=O)NCCOCCOCCOCCNS(=O)(=O)c4cccc([C@@H]5CNCc6c(Cl)cc(Cl)cc65)c4)CCN(CC(=O)NCCOCCOCCOCCNS(=O)(=O)c4cccc([C@@H]5CN(C)Cc6c(Cl)cc(Cl)cc65)c4)CC3)c2)C1 | 82 |  | 
12 | CN1Cc2c(Cl)cc(Cl)cc2[C@@H](c2cccc(S(=O)(=O)NCCOCCOCCNC(=O)N(C)CCCN(CCCN(C)C(=O)NCCOCCOCCNS(=O)(=O)c3cccc([C@@H]4CN(C)Cc5c(Cl)cc(Cl)cc54)c3)C(=O)NCCOCCOCCNS(=O)(=O)c3cccc([C@@H]4CN(C)Cc5c(Cl)cc(Cl)cc54)c3)c2)C1 | 28 |  | Activity (Rattus norvegicus [9]): 88%; Activity (Rattus norvegicus [10]): 55%
13 | C=CCc1ccccc1OCC(O)CNC(C)C (configuration not stated) [ALPRENOLOL] |  | 96 | 
14 | Cc1cc(=O)n(-c2ccccc2)n1C [ANTIPYRINE] |  | 97 | 
15 | CN1Cc2c(Cl)cc(Cl)cc2[C@@H](c2ccc(S(=O)(=O)NCCOCCOCCNC(=O)NCCCCNC(=O)NCCOCCOCCNS(=O)(=O)c3cccc([C@@H]4CN(C)Cc5c(Cl)cc(Cl)cc54)c3)cc2)C1.Cl.Cl | 68 |  | 
16 | OC[C@@H](O)[C@@H](O)[C@H](O)[C@H](O)CO [MANNITOL] |  | 26 | 
